In patent US9290555B2, “Reagents and methods for treating dental disease” (University of Washington Through its Center for …, priority 2011, dated 2016):
Entries after “also recorded” stand apart in the source; their conditions may differ.

B1: rM180: recombinant mouse 180 amino acid long amelogenin (protein, UniProt P63277 17-210, looked up)
Amelogenin, X isoform: MPLPPHPGSPGYINLSYEKSHSQAINTDRTALVLTPLKWYQSMIRQPYPSYGYEPMGGWLHHQIIPVLSQQHPPSHTLQPHHHLPVVPAQQPVAPQQPMMPVPGHHSMTPTQHHQPNIPPSAQQPFQQPFQPQAIPPQSHQPMQPQSPLHPMQPLAPQPPLPPLFSMQPLSPILPELPLEAWPATDKTKREEVD

Columns and labels:
[1] = Binding analysis via QCM; conditions: for Kd: binding to HAp, read-out: KD (dissociation constant); for binding affinity to HAp (in words): compared with ADP1, ADP2, ADP4, ADP7
Procedure: Calcium phosphate coated QCM electrodes were purchased commercially. (Q-Sense, Sweden) The diameter of the crystals and electrodes were 8.8 mm and 5.0 mm, respectively. […] A 12 V DC current was applied to the oscillator circuit to drive the crystal, and the frequency was measured with a Hewlett-Packard 53131A frequency counter sampling at 225 Hz (Universal Counter, Agilent Technologies). After the crystal was mounted in the cell, they were cleaned and dried with high-purity nitrogen gas and used immediately. To establish a stable baseline, a sufficient amount of buffer solution was introduced into the cell before adding the peptide. The frequency change of the crystal in pure buffer solution was recorded for 30 to 60 minutes. After this, the desired amount of ADPs was introduced into the cell and the frequency change was recorded continuously.
The dissociation constants (KD) of the peptides were determined. The KD is an equilibrium constant that represents the concentration necessary to achieve 50% surface coverage. […] (FIG. 2a, Table 1)

[2] = Microstructural and crystallographic analysis of the synthesized minerals (SEM, TEM, XRD); conditions: for mineral morphology: SEM/TEM of minerals formed in solution with peptide; for crystal phase of the mineral formed (XRD): XRD of minerals formed in solution; for amount of radiating crystalline blade-like particles emanating from the spherulites: compared to weak binders and no peptide control
Procedure: (§1) For the mineralization experiments, mineralization solutions containing 24 mM Ca^2+ and 14.4 mM β-GP and 0.4 mM peptide was prepared in 25 mM Tris-HCl buffer (pH 7.4). A mineralization solution containing no peptide was prepared as the negative control. Mineralization reactions were commenced by adding bacterial AP to the solution at a final concentration of 1.4×10^−6 g/mL. Subsequent mineral formation kinetics was monitored by continuous measuring of absorbance at 820 nm wave length using a Tecan Safire microplate reader (Tecan Trading AG, Switzerland) as well as by periodic assays of calcium ions throughout the reaction. For periodic assays of calcium and phosphate, 10 μL of the reaction solution was collected at 0.25-, 0.5-, 1- and 1.5-hr. The calcium concentration in the solutions was determined using QuantiChrome Calcium Assay Kit (Bioassays, U.S.A.). All mineralization reactions were carried out at 37° C. Samples for electron microscopy analysis were prepared by placing a 10 μL aliquot from the reaction solution onto a carbon coated TEM grid. After 1 min, liquid on the TEM grid was carefully wicked away and the grids were vacuum-dried for 5 min. The dried grids were stored in a desiccated container until analyzed. SEM imaging was performed at 10 kV using a JSM 7000F (JEOL, Japan) SEM in secondary electron imaging mode. TEM imaging and electron diffraction analysis were performed using an EMS 420T TEM (FEI, Inc., USA; formerly Philips, The Netherlands) operated at 120 kV.

[3] = In vitro solution biomineralization, alkaline phosphatase based mineralization model; format: biochemical; conditions: for mineralization trend (kinetics): 0.4 mM peptide, 24 mM Ca2+, 14.4 mM β-GP, 37° C., initial 90 minutes; for available free Ca2+ consumed: at the end of the 90 minutes
Procedure: An alkaline phosphatase (AP) based mineralization model was used as described before to investigate the mineralization behaviors of the peptides (22) (see Supporting Information for details). […]
as §1

[4] = Ex vivo re-mineralization of tooth root; parameters: species or system human
Procedure: The cementum-root stock blocks were prepared from single rooted, extracted adult teeth collected at the University of Washington Dental School clinics. No individual identifiers were used and the use of such material complied with the Institutional Review Board guidelines. The teeth were kept in 70% ethanol solution at 4° C. until the specimens were prepared. Cylindrical blocks of 4 mm diameter were cut from the acellular cementum, close to the cementoenamel junction using a trephine bur. The teeth were kept immersed in 70% ethanol-phosphate buffered saline (PBS) during the cutting to prevent heat damage due to friction. The cut cylindrical blocks were cleaned of contaminating material using PBS and demineralized with 35% phosphoric acid gel for 10 seconds. The specimens were stored in 70% ethanol-PBS solution at 4° C. until used.
Prior to coating the specimens with the peptide, the previously cut cylindrical blocks were rehydrated and equilibrated for 2 hours in 24 mM Tris-HCl buffer, pH 7.4. The lyophilized ADP was dissolved in 24 mM Tris-HCl buffer, pH 7.4 to a final concentration of 0.4 mM. A 50 μl drop of the ADP solution was dropped on top of the specimens and left on the specimen for 10 minutes at room temperature in a water saturated chamber to prevent evaporation. Control specimens were identically prepared only by dropping 50 μl of buffer alone. At the end of 10 minutes, the samples were rinsed twice with deionized water. Fluorescent microscopy analysis was performed with fluorescein isothiocyanate-labeled ADP (fADP).
Solutions of 9.6 mM CaCl2 and 5.6 mM (PO4)^−3, a mixture of NaH2PO4—H2O and Na2HPO4-7H20, were prepared in 24 mM Tris-HCl buffer, pH 7.4. The peptide coated and non-coated control specimens were placed in 300 μl of Ca^+2 solution and an equal volume of (PO4)^−3 solution was added to achieve a final concentration of 4.8 mM of Ca^+2 and 2.8 mM of (PO4)^−3. The specimens were incubated in the mineralization solution for 2 hours at 37° C. in a water saturated atmosphere, removed from the mineralization solution and rinsed with 24 mM Tris-HCl buffer, pH 7.4. […]

Molecule | Kd [1] [nM] | mineral morphology [2] | crystal phase of the mineral formed (XRD) [2] | amount of radiating crystalline blade-like particles emanating from the spherulites [2] | mineralization trend (kinetics) [3] | binding affinity to HAp (in words) [1] | available free Ca2+ consumed [3] | Ca/P ratio ([4]; EDX spectra of the cementomimetic layer) | thickness of mineral layer ([4]; SEM and TEM cross-section) | elemental composition by EDS ([4]; peptide coated samples after 2 hours) | crystal phase of the mineral formed (XRD) ([2]; listed as amelogenin)
HPPSHTLQPHHHLPVV [ADP4] | 1430 | spherulitic particles | none of the other strong binders | slightly higher | – | – | – | – | – | – | –
HPPSHTLQPHHHLPVVPAQQPVAPQQPMMPVPGHHSMTPTQH [ADP7] | 1150 | Needle like nano-crystals | crystalline HAp; also recorded: HA precipitation was only observed in ADP7; also recorded: characteristic peaks belonging to the HAp crystal structure | – | slow mineralization trend | – | – | – | – | – | –
HTLQPHHHLPVV [ADP1] | 1400 | spherulitic particles | none of the other strong binders | slightly higher | – | – | – | – | – | – | –
LPPLFSMPLSPILPELPLEAWPAT [ADP6] | 6250 | spherulitic particles | – | – | – | lower | – | – | – | – | –
PAQQPVAPQQPMMP [ADP8] | 3140 | spherulitic particles | – | – | – | lower | – | – | – | – | –
PGYINLSYEKSHSQAINTDRTA [ADP5] | 50000 | much smaller spherulites | – | – | fast mineralization trend | lower | more than half | 1.67 | 10-15 μm | substantial Ca and P peaks | –
VPGHHSMTPTQH [ADP2] | 1610 | spherulitic particles | none of the other strong binders | slightly higher | – | – | – | – | – | – | –
WPATDKTKREEVD [ADP3] | 6400 | spherulitic particles | – | – | – | lower | – | – | – | – | –
B1 | – | Needle like nano-crystals | crystalline HAp | – | fast mineralization trend | – | more than half | – | – | – | characteristic peaks belonging to the HAp crystal structure
